BindingDB's records for doi:10.1016/s0960-894x(99)00486-2 (Dupont Pharmaceuticals, 1999)

Biological target: T1, Gag-Pol polyprotein [588-1027]/[588-1147] (Human immunodeficiency virus 1, UniProt P04585)
T1 construct: 588-1027; 588-1147
Experiment: HIV-1 RT Assay
Settings: pH 8.2; 37 °C
Description: The IC50 of reverse transcriptase is the concentration that inhibits 50% of recombinant HIV-1 RT RNA-directed DNA polymerase activity in vitro.

| Compound | IC50 [nM] |
| --- | --- |
| O=C1Nc2c(Cl)cc(Cl)cc2C(C#CC2CC2)(C(F)(F)F)O1 (stereo not drawn) [6,8-dichloro-4-(2-cyclopropylethynyl)-4-(trifluoromethyl)-2,4-dihydro-1H-3,1-benzoxazin-2-one] | > 2000 |
| O=C1Nc2c(cc(F)c(F)c2F)C(C#CC2CC2)(C(F)(F)F)O1 (stereo not drawn) [4-(2-cyclopropylethynyl)-6,7,8-trifluoro-4-(trifluoromethyl)-2,4-dihydro-1H-3,1-benzoxazin-2-one] | > 2000 |
| O=C1Nc2ccc(-c3ccccc3)cc2C(C#CC2CC2)(C(F)(F)F)O1 (stereo not drawn) [4-(2-cyclopropylethynyl)-6-phenyl-4-(trifluoromethyl)-2,4-dihydro-1H-3,1-benzoxazin-2-one] | > 2000 |
